Laboratory results from patent publication US6787557B2 (priority 2000, dated 2004).
Values joined by “and” are separate entries in the source; they are usually repeats but may differ in a detail not shown here. Equal entries are not always repeated. Where two headings read alike, the source gives them in different places.

What was measured:
rice blast fungi [1] = format: in vivo, Pyricularia oryzae
rice blast fungi [2] = format: in vivo, Pyricularia oryzae; remark: listed apart in the source

Row | Compound | Protective value (rice blast fungi [1]; 3 ppm) | Protective value (rice blast fungi [1]; 10 ppm) | Protective value (rice blast fungi [2]; 30 ppm) | Protective value (rice blast fungi [2]; 100 ppm) | Protective value (rice blast fungi [2]; 37.5 ppm) | Protective value (rice blast fungi [2]; 75 ppm) | Protective value (rice blast fungi [1]; in vivo) | Protective value (rice blast fungi [2]; in vivo)
1 | 2,3-dimethyl-6-t-butyl-8-fluoro-4-acetoxyacetylquinoline [Compound 11] | 94 | 100 | 88 | 99 | – | – | – | –
2 | 2,3-dimethyl-6-t-butyl-8-fluoro-4-butyrylquinoline [Compound 4] | – | – | – | – | 66 | 94 | – | –
3 | 2,3-dimethyl-6-t-butyl-8-fluoro-4-methoxyacetylquinoline [Compound 10] | 99 | 100 | 90 | 100 | – | – | – | –
4 | 2,3-dimethyl-6-t-butyl-8-fluoro-4-n-butoxycarbonyl-quinoline [Compound 9] | – | – | – | – | – | – | 99 and 90 | 98 and 87
5 | 2,3-dimethyl-6-t-butyl-8-fluoro-4-n-propoxycarbonyl-quinoline [Compound 8] | – | – | – | – | – | – | 100 and 92 | 98 and 84
6 | 2,3-dimethyl-6-t-butyl-8-fluoro-4-valerylquinoline [Compound 5] | 84 | 99 | – | – | 82 | 95 | – | –
7 | Cc1nc2c(F)cc(C(C)(C)C)cc2c(O)c1C [Compound 1, 2,3-dimethyl-6-t-butyl-8-fluoro-4-hydroxyquinoline] | 93 | 100 | – | – | – | – | – | –
